Results: article PMC8010095, “Discovery of novel antituberculosis agents among 3-phenyl-5-(1-phenyl-1H-[1,2,3]triazol-4-yl)-[1,2,4]oxadiazole derivatives targeting aminoacyl-tRNA synthetases” (Scientific Reports, 2021)
≈ marks a conversion by molar mass, not a printed value.

Legend:
[1] = system: rifampin-resistant strain H37Rv (rpoB^S450L) (ATCC #35,838); format: cell-based, Mycobacterium tuberculosis
[2] = system: isoniazid-resistant H37Rv (katG^del) (MS015); assay: microbe, parasite or virus in culture; format: cell-based; details: > 80% reduction in growth, screened at 20, 2 and 0.2 mg/L, 7H9 complete medium; for MIC: Mycobacterium tuberculosis, H37RV, read-out: Growth inhibition cutoff, H37Rv (katG^del)
[3] = system: moxifloxacin-resistant strain H37Rv (gyrA^D94K) (MOX3); format: cell-based, Mycobacterium tuberculosis
[4] = system: M. tuberculosis mono-resistant strains; assay: microbe, parasite or virus in culture; format: cell-based

Compound | Growth inhibition cutoff, H37Rv (rpoB^S450L) [1] [mg/L] | Growth inhibition cutoff, H37Rv (katG^del) [2] [mg/L] | Growth inhibition cutoff, H37Rv (gyrA^D94K) [3] [mg/L] | growth inhibition cutoff [4] [µM] | MIC [2] [µg/mL] | MIC ([4]; Mycobacterium tuberculosis, read-out: growth inhibition cutoff) [µM]
COc1ccc(-n2nnc(-c3nc(-c4ccc(F)cc4)no3)c2N)cc1Cl [Compound 17, 3-(3-chloro-4-methoxy-phenyl)-5-[3-(4-fluoro-phenyl)-[1,2,4]oxadiazol-5-yl]-3H-[1,2,3]triazol-4-ylamine] | > 20 | > 20 | > 20 | – | – | –
COc1ccc(-c2noc(-c3nnn(-c4ccc(Cl)cc4)c3C)n2)cc1OC [Compound 38] | > 20 | > 20 | > 20 | – | – | –
Cc1c(-c2nc(-c3ccccc3F)no2)nnn1-c1ccc(Br)cc1 [Compound 5] | 2 to 20 | > 20 | 2 to 20 | – | – | –
COc1ccc(C)cc1-n1nnc(-c2nc(-c3ccc(F)cc3)no2)c1N [Compound 28] | > 20 | > 20 | > 20 | – | – | –
Nc1c(-c2nc(-c3ccc(F)cc3)no2)nnn1-c1ccc(Cl)cc1 [Compound 10] | > 20 | > 20 | > 20 | – | – | –
CCc1ccc(-n2nnc(-c3nc(-c4ccc(F)cc4)no3)c2N)cc1 [Compound 14] | > 20 | > 20 | > 20 | – | – | –
CCOc1ccc(-c2noc(-c3nnn(-c4ccccc4Cl)c3N)n2)cc1 [Compound 40] | > 20 | > 20 | 2 to 20 | 5.22 to 52.2 | – | –
COc1ccc(Cl)cc1-n1nnc(-c2nc(-c3ccc(F)cc3)no2)c1N [Compound 27] | 2 to 20 | – | > 20 | – | > 20 | 5.17 to 51.7 (≈ 2 to 20 µg/mL)
Nc1c(-c2nc(-c3ccc(F)cc3)no2)nnn1-c1ccc(F)cc1 [Compound 12] | > 20 | > 20 | > 20 | – | – | –
Nc1c(-c2nc(-c3ccc(Br)cc3)no2)nnn1-c1cccc(F)c1 [Compound 33] | > 20 | > 20 | > 20 | – | – | –
COc1cccc(-n2nnc(-c3nc(-c4ccc(F)cc4)no3)c2N)c1 [Compound 20] | 2 to 20 | > 20 | 2 to 20 | 5.7 to 57 | – | –
Cc1ccccc1-c1noc(-c2nnn(-c3ccc(Br)cc3)c2C)n1 [Compound 8] | > 20 | > 20 | > 20 | – | – | –
Cc1cccc(-n2nnc(-c3nc(-c4ccc(F)cc4)no3)c2N)c1 [Compound 18] | > 20 | > 20 | > 20 | – | – | –
COc1ccc(OC)c(-n2nnc(-c3nc(-c4ccc(F)cc4)no3)c2N)c1 [Compound 29] | > 20 | > 20 | > 20 | – | – | –
Cc1c(-c2nc(-c3ccccc3Cl)no2)nnn1-c1cccc(F)c1 [Compound 7] | > 20 | > 20 | > 20 | – | – | –
CCOc1ccccc1-n1nnc(-c2nc(-c3ccc(F)cc3)no2)c1N [Compound 30] | > 20 | > 20 | > 20 | – | – | –
Cc1c(-c2nc(-c3ccccc3F)no2)nnn1-c1ccc(F)c(Cl)c1 [Compound 4] | > 20 | > 20 | > 20 | – | – | –
CCOc1ccccc1-n1nnc(-c2nc(-c3ccc(Br)cc3)no2)c1N [Compound 36] | > 20 | > 20 | > 20 | – | – | –
COc1ccccc1-n1nnc(-c2nc(-c3ccc(Br)cc3)no2)c1N [Compound 35] | > 20 | > 20 | > 20 | – | – | –
CCOc1ccc(-c2noc(-c3nnn(-c4ccccc4F)c3N)n2)cc1 [Compound 39] | > 20 | > 20 | > 20 | – | – | –
COc1ccc(-c2noc(-c3nnn(-c4cc(Cl)ccc4OC)c3N)n2)cc1 [Compound 37] | > 20 | > 20 | > 20 | – | – | –
Nc1c(-c2nc(-c3ccccc3)no2)nnn1-c1ccc(C(F)(F)F)c(Cl)c1 [Compound 2] | > 20 | – | > 20 | – | > 20 | –
